# Source: patent publication US4820836A, “Prostacyclin (PGI2) analogues” (Shionogi & Co., Ltd., priority 1986, dated 1989)
# Like-named read-outs stand apart in the source and are kept apart here.
# System: Platelet Agglutination
# Experiment: In vitro inhibition of platelet agglutination (rabbit platelet rich plasma, aggregometer) induced by arachidonic acid, collagen or ADP
# Format: cell-based
# Details: Oryctolagus cuniculus, rabbit PRP
# Protocol: The inhibitory activity of the representative compounds of the present invention against platelet agglutination is shown in the following in vitro test.
# Mature male rabbits (NIBS-JW, RABITON Institute Inc., weighing 2.2-2.7 kg) were used. Under sodium pentobarbital anesthesia (Somnopentyl, Pitman Movre, about 25 mg/Kg, i.v.), blood was with from the carotid artery by cannulation into centrifuge tubes containg 1/10 vol of a 3.8% sodium citrate solution. (The total volume in each tube was adjusted to 8 ml.) The blood in a tube was gentyl mixed by turing and centrifuged for 10 minutes at 210 g at 20° C. to give platelet rich plasma (PRP). The remaining blood was further centrifuged at 3,000 rpm (about 1,900 g) for 10 minutes at 20° C. to give platelet-poor plasma (PPP).
# PRP was diluted with PPP to prepare a blood sample whose platelet number was 50-55×10^4 /μl. The sample was then subjected to a platelet agglutination test.
# The platelet agglutination was examined by the method of Bron [Born, G.V.R., Nature, 194, 927-929 (1962)], using a Type AUTO RAM-61 aggregometer, (Rika Denki Co., Ltd., Tokyo). A volume of 400 μl of PRP, whose platelet number was adjusted to 50-55×10^4 /μl, was placed in a measuring cuvette and set in the aggregometer. PRP was warmed at 37° C. for 1 minute with stirring at 1,200 rpm, and then a solution of the test compound [dimethylsulfoxide solution (2 μl) of the compound+saline (48 μl); in case of prostaglandin I2 (PGI2) and prostaglandin E1 (PG E1), a solution of each compound (50 μl) in Tris buffer] was added thereto. Exactly 2 minutes later, 50 μl of ADP Pharmacia, U.S.A., (final concentration: 30 μM) or collagen (final muchen, muchen, concentration: 20 μg/ml) or arachidonic acid (sodium salt, Sigma, final concentration (500 μM) was added as a platelet agglutinating agent, and the change in light transmission caused by platelet agglutination was recorded.
# The light transmissions of PRP and PPP were taken as 0% and 100% agglutination, respectively, and the maximum light transmission after addition of an agglutinating agent was made to the maxiumum agglutination. The inhibition rate of the platelet agglutination was expressed as the percentage of the maximum agglutination by a test compound to that by a control (Vehicle added group).
# Prostaglandin (PG) I2 and E1 are served as standard substances.
# [1] = ADP, final 30 μM, 37° C., compound in dimethylsulfoxide+saline, read-out: Inhibition Activity against Platelet Agglutination [50% Inhibition Concentration (μM)], ADP
# [2] = arachidonic acid, final 500 μM, 37° C., compound in dimethylsulfoxide+saline, read-out: Inhibition Activity against Platelet Agglutination [50% Inhibition Concentration (μM)], Arachidonic acid
# [3] = collagen, final 20 μg/ml, 37° C., compound in dimethylsulfoxide+saline, read-out: Inhibition Activity against Platelet Agglutination [50% Inhibition Concentration (μM)], Collagen
Compound,IC50 [1] [µM],IC50 [2] [µM],IC50 [3] [µM],also measured
C#C[C@]12C[C@@H](O)[C@H](/C=C/[C@H](O)C(C)CCCC)[C@H]1CC(SCCCC(=O)OCC)=N2 (stereo partly drawn) [17(R)g-b],2.06,1.55,0.54,–
C#C[C@]12C[C@@H](O)[C@H](/C=C/[C@H](O)C(C)CC#CC)[C@H]1CC(SCCCC(=O)OCC)=N2 (stereo partly drawn) [17(R)g-d],8.43,11.7,4,–
C#C[C@]12C[C@@H](O)[C@H](/C=C/[C@H](O)C3CCCCC3)[C@H]1CC(SCCCC(=O)OCC)=N2 [17(R)g-e],13.4,60.6,3,–
C=C[C@]12C[C@@H](O)[C@H](/C=C/[C@H](O)C3CCCC3)[C@H]1CC(SCCCC(=O)OCC)=N2 [17(R)l-f],142,443,54,–
CCCCC[C@H](O)/C=C/[C@H]1[C@H](O)C[C@]2(CC)N=C(SCCCC(=O)OCC)C[C@H]12 [17(S)d],18,160,9,–
CCCCC[C@H](O)/C=C/[C@H]1[C@H](O)C[C@]2(C)N=C(SCCCC(=O)OCC)C[C@H]12 [17(S)e],1.6,4.4,0.6,–
C#C[C@]12C[C@@H](O)[C@H](/C=C/[C@@H](O)C(C)CCCC)[C@H]1CC(SCCCC(=O)OCC)=N2 (stereo partly drawn) [17(S)g-b],0.0066,0.012,0.0013,–
C#C[C@]12C[C@@H](O)[C@H](/C=C/[C@@H](O)C3CCCCC3)[C@H]1CC(SCCCC(=O)OCC)=N2 [17(S)g-e],0.033,0.146,0.0094,–
CC#C[C@]12C[C@@H](O)[C@H](/C=C/[C@@H](O)CCCCC)[C@H]1CC(SCCCC(=O)OCC)=N2 [17(S)h],0.006,0.01,0.0013,–
"C#CC#C[C@]12C[C@@H](O)[C@H](/C=C/[C@@H](O)CCCCC)[C@H]1CC(SCCCC(=O)OCC)=N2 [17(S)k, ethyl 4-[1-(1,3-butadiynyl)-7-hydroxy-6-[(3S)-3-hydroxy-1-octenyl]-2-azabicycl[3.3.0]oct-2-en-3-yl]thiobutanoate]",0.27,0.74,0.053,–
"C=C[C@]12C[C@@H](O)[C@H](/C=C/[C@@H](O)CCCCC)[C@H]1CC(SCCCC(=O)OCC)=N2 [17(S)l, ethyl 4-[1-ethenyl-7-hydroxy-6[(3S)-3-hydroxy-1-octenyl]-2-azabicyclo[3.3.0]oct-2-en-3-yl]thiobutanoate]",0.42,0.7,0.1,–
C=C[C@]12C[C@@H](O)[C@H](/C=C/[C@@H](O)C(C)CC#CC)[C@H]1CC(SCCCC(=O)OCC)=N2 (stereo partly drawn) [17(S)l-d],0.13,0.36,0.048,–
C=C[C@]12C[C@@H](O)[C@H](/C=C/[C@@H](O)C3CCCC3)[C@H]1CC(SCCCC(=O)OCC)=N2 [17(S)l-f],0.3,1.2,0.12,–
"CCCCC[C@H](O)/C=C/[C@H]1[C@H](O)C[C@]2(C#N)N=C(SCCCC(=O)OCC)C[C@H]12 [17(S)m, ethyl 4-[1-cyano-7-hydroxy-6-[(3S)-3-hydroxy-1-octenyl]-2-azabicyclo[3.3.0]oct-2-en-3-yl]thiobutanoate]",0.167,0.332,0.044,–
"C#C[C@]12C[C@@H](O)[C@H](/C=C/[C@@H](O)CCCCC)[C@H]1CC(SCCCC(=O)OC)=N2 [18(S)g, methyl 4-[1-ethynyl-7-hydroxy-6-[(3S)-3-hydroxy-1-octenyl]-2-azabicyclo[3.3.0]oct-2-en-3-yl]thiobutanoate]",0.0241,0.081,0.011,–
"C#C[C@]12C[C@@H](O)[C@H](/C=C/[C@@H](O)CCCCC)[C@H]1CC(SCCCC(=O)O)=N2 [19(S)g, Sodium 4-[1-ethynyl-7-hydroxy-6-[(3S)-3-hydroxy-1-octenyl]-2-azabicyclo[3.3.0]oct-2-en-3-yl]thiobutanoate]",0.0049,0.0093,0.0093,–
"CC#C[C@]12C[C@@H](O)[C@H](/C=C/[C@@H](O)CCCCC)[C@H]1CC(SCCCC(=O)O)=N2 [19(S)h, sodium 4-[7-hydroxy-6-[(3S)-3-hydroxy-1-octenyl]-1-(1-propynyl)-2-azabicyclo[3.3.0]oct-2-en-3-yl]thiobutanoate]",0.0042,0.0035,0.0028,–
"CCCCC[C@H](O)/C=C/[C@H]1[C@H](O)CC(=O)[C@@H]1CCCCCCC(=O)O [PGE1, prostaglandin E1, reference compound]",–,–,–,"IC50 (pH 7.4, ADP, final 30 μM, Tris buffer, pH7.4, read-out: Inhibition Activity against Platelet Agglutination [50% Inhibition Concentration (μM)], ADP): 0.066 µM; IC50 (pH 7.4, arachidonic acid, final 500 μM, Tris buffer, pH7.4, read-out: Inhibition Activity against Platelet Agglutination [50% Inhibition Concentration (μM)], Arachidonic acid): 0.25 µM; IC50 (pH 7.4, collagen, final 20 μg/ml, Tris buffer, pH7.4, read-out: Inhibition Activity against Platelet Agglutination [50% Inhibition Concentration (μM)], Collagen): 0.052 µM"
"CCCCC[C@H](O)/C=C/[C@@H]1[C@H]2C/C(=C/CCCC(=O)O)O[C@H]2C[C@H]1O [PGI2, prostaglandin I2]",–,–,–,"IC50 (pH 8, ADP, final 30 μM, Tris buffer, pH8.0, read-out: Inhibition Activity against Platelet Agglutination [50% Inhibition Concentration (μM)], ADP): 0.014 µM; IC50 (pH 8, arachidonic acid, final 500 μM, Tris buffer, pH8.0, read-out: Inhibition Activity against Platelet Agglutination [50% Inhibition Concentration (μM)], Arachidonic acid): 0.054 µM; IC50 (pH 8, collagen, final 20 μg/ml, Tris buffer, pH8.0, read-out: Inhibition Activity against Platelet Agglutination [50% Inhibition Concentration (μM)], Collagen): 0.019 µM; IC50 (pH 10, ADP, final 30 μM, Tris buffer, pH10.0, read-out: Inhibition Activity against Platelet Agglutination [50% Inhibition Concentration (μM)], ADP): 0.016 µM; IC50 (pH 10, arachidonic acid, final 500 μM, Tris buffer, pH10.0, read-out: Inhibition Activity against Platelet Agglutination [50% Inhibition Concentration (μM)], Arachidonic acid): 0.09 µM; IC50 (pH 10, collagen, final 20 μg/ml, Tris buffer, pH10.0, read-out: Inhibition Activity against Platelet Agglutination [50% Inhibition Concentration (μM)], Collagen): 0.02 µM"

# Further lines, with some results ahead:
IC50 [1] [µM],IC50 [2] [µM],IC50 [3] [µM],Compound,also measured
55,118,23,C=C[C@]12C[C@@H](O)[C@H](/C=C/[C@H](O)C(C)CC#CC)[C@H]1CC(SCCCC(=O)OCC)=N2 (stereo partly drawn) [17(R)l-d],–
16,21,8,"CCCCC[C@H](O)/C=C/[C@H]1[C@H](O)C[C@]2(Sc3ccccc3)N=C(SCCCC(=O)OCC)C[C@H]12 [17(S)a, ethyl 4-[7-hydroxy-6-[(3S)-3-hydroxy-1-octenyl]-1-phenylthio-2-azabicyclo[3.3.0]oct-2-en-3-yl]thiobutanoate]",–
15,16,7,CCCCC[C@H](O)/C=C/[C@H]1[C@H](O)C[C@]2(OC)N=C(SCCCC(=O)OCC)C[C@H]12 [17(S)b],–
0.011,0.02,0.006,"C#C[C@]12C[C@@H](O)[C@H](/C=C/[C@@H](O)CCCCC)[C@H]1CC(SCCCC(=O)OCC)=N2 [17(S)g, ethyl 4-[1-ethynyl-7-hydroxy-6-[(3S)-3-hydroxy-1-octenyl]-2-azabicyclo[3.3.0]oct-2-en-3-yl]thiobutanoate]",–
0.014,0.018,0.0042,C#C[C@]12C[C@@H](O)[C@H](/C=C/[C@@H](O)C(C)CC#CC)[C@H]1CC(SCCCC(=O)OCC)=N2 (stereo partly drawn) [17(S)g-d],–
5,44,0.45,CCCCC[C@H](O)/C=C/[C@H]1[C@H](O)C[C@]2(C#Cc3ccccc3)N=C(SCCCC(=O)OCC)C[C@H]12 [17(S)i],–
0.074,0.16,0.062,"CCCCC[C@H](O)/C=C/[C@@H]1[C@H]2CC(SCCCC(=O)OC)=N[C@H]2C[C@H]1O [Compound 18c, reference compound]",–
